Measurements published in paper PMC12248599, “Exploring the Bioavailability of Red Grape Skin Extract Polyphenols: A Caco-2 Cell Model Study” (Foods, 2025).
Where “and” joins values, the source holds several entries; their conditions need not be identical. Equal values may be shown once. Marks after values point to notes of the source that are not given here. One block for each molecule: values may come before it.

What was measured:
[1] = Caco-2 monolayer transport (bioavailability) study, AB and BA directions; type: in vitro ADME, Homo sapiens; details: human
Procedure: (§1) A reversed phase C18 column (Luna 5 μm C18(2) 100 Å, LC Column 250 × 4.6 mm, Phenomenex) was used to separate the polyphenols at a flow rate of 0.7 mL/min with an injection volume of 60 µL. The detection was carried out at 520 nm for anthocyanins (M3G, D3G and Pet3G), at 328 nm for CA, at 356 nm for flavonols (Q3G, K3Gal and K3G) and at 280 nm for GA and SA. The mobile phases were (A) acetonitrile 100% and (B) water 0.1% trifluoroacetic acid (v/v). The gradient was programmed as follows: 10% A 0 min, 10–80% A (0–20 min), 80–100% A (20–25 min), 100% A (25–30 min); 10% A (30–35 min) and 10% A (35–40 min). Every polyphenol was quantified using the corresponding reference standard calibration curve. Each of the quantified phenolic compound concentration was expressed as mg/mL
(§2) For the transport experiment Caco-2 cells were cultured at a density of 4 × 10^4 cells/cm^2 in Transwell inserts (12 mm i.d., 1.12 cm^2 growth area, 0.4 µm mean pore size polycarbonate membranes, Corning Inc., Milwaukee, WI, USA) placed in 12-well plates. Caco-2 cells were grown in DMEM in an incubator at 37 °C in a humidified atmosphere containing 5% CO2.
(§3) Bioavailability studies were performed in triplicate after 21 days of cell growth. Only inserts with stable TEER values higher than ≥300 Ω cm^2 were considered acceptable to perform the bioavailability study. For that purpose, DMEM media was removed, the monolayer was washed with PBS and HBSS was supplied to the cells.
(§4) Likewise, the GSE stock solution was diluted in HBSS medium to prepare GSE solutions S1 and S2. GSE solutions S1 and S2 had concentrations of 15 mg/mL and 22 mg/mL, respectively. These concentrations were established considering previous studies with grape pomace extracts that concluded that intestinal concentrations of 1–2% (w/v) show potential bioactivities and are safe to be used as a food ingredient.
(§5) The apical side represents the intestinal lumen and the basolateral side represents the bloodstream. Each sample (100 µL) was immediately acidified with 1M HCl to a final concentration of 0.007 M and subsequently frozen at −20 °C until analysis by HPLC (according to the method described in Section 2.5). Each experiment was carried out on 3 individual wells. The transport efficiency (TE) percentage was calculated according to Equation (2):Transport efficiency (%) = (C/C0) × 100(2) where, C is the polyphenol concentration at the acceptor side over time and C0 is the initial concentration at the donor side. TE values were calculated for the nine polyphenols identified in the grape skin extract.
(§6) The apparent permeability coefficient (Papp) of the polyphenols in GSE was calculated for apical to basolateral side (AB) and basolateral to apical side (BA) flux studies according to Equation (3):Papp (cm/s) = (dQ/dt) × (VR/AC0)(3) where, dQ/dt is the permeability rate which means the steady-state linear rate of change of concentration (mg/L) per second (s) at the acceptor side; A is the surface area of the cell monolayer (1.12 cm^2). C0 is the initial concentration at the donor side (mg/L) at t = 0 s and VR is the volume of the solution of the acceptor side (mL).
(§7) The efflux ratio (ER) of the polyphenol was assessed by calculating the Equation (4):ER = Papp (BA)/Papp (AB)(4) where, Papp (BA) is the apparent permeability coefficient of the polyphenol from basolateral to apical side and Papp (AB) is the apparent permeability coefficient from apical to basolateral side. ER is a measure of the relative contributions of active and passive transport to bi-direction flux across the cell monolayer.

[2] = system: Caco-2 cell monolayer; test: as above; type: in vitro ADME, Homo sapiens; details: for TE (%) transport efficiency: after 180 min
Procedure: as §1, §2, §3, §4, §5, §6, §7

[3] = system: Caco-2 cells; details: cited from earlier work
[4] = AB experiment, S1 (15 mg/mL GSE), 0 to 180 min
[5] = AB experiment, S2 (22 mg/mL GSE), 0 to 180 min
[6] = AB experiment, acceptor side, S2 (22 mg/mL GSE)
[7] = AB experiment, donor side, S1 (15 mg/mL GSE)
[8] = AB experiment, donor side, S2 (22 mg/mL GSE)
[9] = BA experiment, acceptor side, S1 (15 mg/mL GSE)
[10] = BA experiment, acceptor side, S2 (22 mg/mL GSE)
[11] = BA experiment, donor side, S1 (15 mg/mL GSE)
[12] = BA experiment, donor side, S2 (22 mg/mL GSE)

efflux ratio at 180 min, 22 mg/mL ([1]; Caco-2, Papp (BA)/Papp (AB), S2 (22 mg/mL GSE), read-out: ER (efflux ratio)): > 1
Papp A→B at 180 min, 22 mg/mL ([1]; Caco-2, apical to basolateral, S2 (22 mg/mL GSE)): 15 ± 1 ×10⁻⁶ cm/s
Papp B→A at 180 min, 15 mg/mL ([1]; Caco-2, basolateral to apical, S1 (15 mg/mL GSE)): 33 ± 2 ×10⁻⁶ cm/s
Papp B→A at 180 min, 22 mg/mL ([1]; Caco-2, basolateral to apical, S2 (22 mg/mL GSE)): 18 ± 1 ×10⁻⁶ cm/s
reduction in concentration on the apical (donor) side [2, 4]: 75 ± 2%
reduction in concentration on the apical (donor) side [2, 5]: 58 ± 3%
TE (%) transport efficiency ([2]; AB experiment, S2 (22 mg/mL GSE)): 1.08 ± 0.01%
Basolateral Side 180 min ([2]; AB experiment, acceptor side, S1 (15 mg/mL GSE)): undetectable
Basolateral Side 75 min [2, 6]: 0.12 ± 0.01 ^b mg/L
Basolateral Side 90 min [2, 6]: 0.13 ± 0.01 ^c,d mg/L
Basolateral Side 115 min [2, 6]: 0.14 ± 0.01 ^d,c mg/L
Basolateral Side 180 min [2, 6]: 0.15 ± 0.01 ^c mg/L
Apical Side 0 min [2, 7]: 6.1 ± 0.3 mg/L and 6.1 ± 0.3 ^a mg/L
Apical Side 75 min [2, 7]: 4.5 ± 0.2 ^b mg/L
Apical Side 90 min [2, 7]: 3.2 ± 0.1 ^c mg/L
Apical Side 115 min [2, 7]: 2.26 ± 0.06 ^d mg/L
Apical Side 180 min [2, 7]: 1.53 ± 0.04 mg/L and 1.53 ± 0.04 ^c mg/L
Apical Side 0 min [2, 8]: 14 ± 1 ^a mg/L
Apical Side 75 min [2, 8]: 11.6 ± 0.9 ^b mg/L
Apical Side 90 min [2, 8]: 9.2 ± 0.9 ^c mg/L
Apical Side 115 min [2, 8]: 7.2 ± 0.9 ^d mg/L
Apical Side 180 min [2, 8]: 6.0 ± 0.8 mg/L and 6.0 ± 0.8 ^d mg/L
detection at the acceptor side ([2]; AB experiments, basolateral side): detected
TE (%) transport efficiency ([2]; BA experiment, S2 (22 mg/mL GSE)): 1.73 ± 0.04%
Apical Side 75 min [2, 9]: 0.19 ± 0.02 ^a,b mg/L
Apical Side 90 min [2, 9]: 0.23 ± 0.02 ^b,c mg/L
Apical Side 115 min [2, 9]: 0.28 ± 0.02 ^c mg/L
Apical Side 180 min [2, 9]: 0.33 ± 0.02 ^c mg/L
Apical Side 75 min [2, 10]: 0.18 ± 0.01 ^b mg/L
Apical Side 90 min [2, 10]: 0.22 ± 0.01 ^c mg/L
Apical Side 115 min [2, 10]: 0.26 ± 0.01 ^d mg/L
Apical Side 180 min [2, 10]: 0.30 ± 0.01 ^c mg/L
Basolateral Side 0 min [2, 11]: 10.4 ± 0.7 ^a mg/L
Basolateral Side 75 min [2, 11]: 9.7 ± 0.6 ^b mg/L
Basolateral Side 90 min [2, 11]: 9.1 ± 0.6 ^c mg/L
Basolateral Side 115 min [2, 11]: 8.5 ± 0.6 ^d mg/L
Basolateral Side 180 min [2, 11]: 8.0 ± 0.6 ^c mg/L
Basolateral Side 0 min [2, 12]: 17.5 ± 0.4 ^a mg/L
Basolateral Side 75 min [2, 12]: 16.4 ± 0.4 ^b mg/L
Basolateral Side 90 min [2, 12]: 15.4 ± 0.3 ^c mg/L
Basolateral Side 115 min [2, 12]: 14.5 ± 0.3 ^c,d mg/L
Basolateral Side 180 min [2, 12]: 13.7 ± 0.2 ^c mg/L
detection at the acceptor side ([2]; BA experiments, apical side): detected
Compound: COc1cc(-c2[o+]c3cc(O)cc(O)c3cc2O[C@@H]2O[C@H](CO)[C@@H](O)[C@H](O)[C@H]2O)cc(OC)c1O [M3G, malvidin-3-O-glucoside]
transepithelial transport M3G efficiency ([3]; Caco-2 cells, rabbiteye blueberry extract, depending on initial extract concentration, after 2 h): 6.93–7.31%
M3G transport efficiency ([3]; after 240 min): 0.35%

detection at the acceptor side of the Caco-2 cell monolayer ([2]; AB and BA experiments): not detected
reduction in concentration on the apical (donor) side [2, 4]: 67 ± 4%
reduction in concentration on the apical (donor) side [2, 5]: 55 ± 2%
Apical Side 0 min [2, 7]: 0.70 ± 0.03 mg/L and 0.70 ± 0.03 ^a mg/L
Apical Side 75 min [2, 7]: 0.54 ± 0.03 ^b mg/L
Apical Side 90 min [2, 7]: 0.42 ± 0.03 ^c mg/L
Apical Side 115 min [2, 7]: 0.32 ± 0.03 ^d mg/L
Apical Side 180 min [2, 7]: 0.23 ± 0.03 mg/L and 0.23 ± 0.03 ^c mg/L
Apical Side 0 min [2, 8]: 1.48 ± 0.06 mg/L and 1.48 ± 0.06 ^a mg/L
Apical Side 75 min [2, 8]: 1.21 ± 0.04 ^b mg/L
Apical Side 90 min [2, 8]: 1.03 ± 0.03 ^c mg/L
Apical Side 115 min [2, 8]: 0.82 ± 0.02 ^d mg/L
Apical Side 180 min [2, 8]: 0.67 ± 0.03 mg/L and 0.67 ± 0.03 ^c mg/L
reduction in concentration on the basolateral (donor) side ([2]; BA experiment, S2 (22 mg/mL GSE), 0 to 180 min): 23 ± 1%
Basolateral Side 0 min [2, 11]: 0.84 ± 0.08 ^a mg/L
Basolateral Side 75 min [2, 11]: 0.72 ± 0.07 ^a,b mg/L
Basolateral Side 90 min [2, 11]: 0.63 ± 0.07 ^b,c mg/L
Basolateral Side 115 min [2, 11]: 0.53 ± 0.06 ^c,d mg/L
Basolateral Side 180 min [2, 11]: 0.44 ± 0.06 ^d mg/L
Basolateral Side 0 min [2, 12]: 1.1 ± 0.1 ^a mg/L
Basolateral Side 75 min [2, 12]: 1.10 ± 0.09 ^a,b mg/L
Basolateral Side 90 min [2, 12]: 1.03 ± 0.09 ^a,b,c mg/L
Basolateral Side 115 min [2, 12]: 0.96 ± 0.08 ^b,c mg/L
detection at the acceptor side ([2]; BA experiments, apical side): detected
Compound: COc1cc(C(=O)O)cc(OC)c1O [SA, syringic acid]
Basolateral Side 180 min [2, 12]: 0.90 ± 0.08 mg/L and 0.901 ± 0.08 ^c mg/L
